These results are taken from patent US7220727B2, “Aminoglycosides as antibiotics” (priority 2000, dated 2007).

For orientation: MIC means the lowest concentration that inhibits growth of the organism.

Assay [1] concerns Enterobacter cloacae ATCC 3047. Kind of assay: MIC, microdilution broth, E. cloacae. It is filed as cell-based. The text has this: (§1) Escherichia coli JM83 is an antibiotic-sensitive laboratory strain. E. coli JM83 (APH(3′)-I) contains high copies (500–700 copies per cell) of plasmid pUC19 with the cloned kanamycin resistance gene from transposon Tn903 that produces the type I aminoglycoside 3′-phosphotransferase. APH(3′)-I is the most common aminoglycoside phosphotransferase in gram-negative bacteria. E. coli JM83 (AAC6′/APH2″) contains a plasmid with the gene for the bifunctional aminoglycoside-modifying enzyme AAC(6′)/APH(2″), which is produced by many cocci. The enzyme is able to phosphorylate at the 2″ position and/or acetylate at the 6′ position of various aminoglycoside antibiotics to manifest resistance for the organisms that express it. Serratia marcescens ATCC 13880, Enterobacter cloacae ATCC 3047, Pseudomonas aeruginosa 66 and C43 are representative important gram-negative pathogens. Aminoglycosides by themselves or in combination with other antibiotics are often used to combat these microorganisms, especially P. aeruginosa that is often very difficult to treat. Staphylococcus aureus 3 and Enterococcus faecium 119 are representatives of the cocci. Most of these microorganisms are intrinsically resistant to aminoglycosides (poor permeability), but in combination with β-lactam antibiotics are often used to treat infections caused by these microorganisms.
(§2) The MICs of all antibiotics, including the compounds of the present invention (i.e., the compounds of formula (I)), were determined by microdilution method broth procedure. Sequential twofold dilutions of antibiotics were performed in 100 μL of Luria-Bertani (LB) broth in sterile 96-well microtiter plates. Overnight cultures of bacteria were diluted 100 times in LB broth and subgrown for several hours and 10 μL of diluted cultures were transferred into the antibiotic containing microtiter plates to bring final inoculums to 10^5 CFU/mL (CFU stands for the colony forming units). Cultures were incubated overnight at 35° C. and microtiter plates were checked from below with a reflective viewer.
Background: In broth dilution the organism is exposed to a series of concentrations in liquid medium.

In a further assay the test system is Staphylococcus aureus 3. Briefly: MIC, microdilution broth, S. aureus. Type of assay: cell-based. To be noted: S. aureus 3.
From the text: as §1, §2

The subject of a further assay is Escherichia coli JM83. Kind of assay: MIC, microdilution broth, E. coli JM83. Type of assay: cell-based. To be noted: E. coli JM83, antibiotic-sensitive laboratory strain.
From the text: as §1, with “Most of these microorganisms are intrinsically resistant to aminoglycosides (poor permeability), but in combination with β-lactam antibiotics are often used to treat infections caused by these microorganisms.” left out
(§3) The MICs of all antibiotics, including the compounds of the present invention (i.e., the compounds of formula (I)), were determined by microdilution method broth procedure. […]

The subject of assay [2] is Serratia marcescens ATCC 13880. Briefly: MIC, microdilution broth, S. marcescens. It is filed as cell-based.
From the text: as §1, §2

For another assay, the system named is E. coli JM83 (APH(3′)-I). Kind of assay: MIC, microdilution broth, E. coli hyper-expressing APH(3′)-I. It is filed as cell-based, Escherichia coli. The following applies: for antibiotic activity / fold lower activity than tobramycin and amikacin: E. coli hyper-expressing APH(3′)-I.
From the text: as §1, §2

Assay [3] relates to E. coli JM83 (AAC6′/APH2″). Briefly: MIC, microdilution broth, E. coli hyper-expressing AAC(6′)/APH(2″). Type of assay: cell-based, Escherichia coli. To be noted: for antibiotic activity: E. coli hyper-expressing AAC(6′)/APH(2″).
From the text: as §1, §2

In assay [4] the test system is any of the microorganisms tested. Kind of assay: MIC, microdilution broth, whole panel of bacterial strains. The following applies: whole spectrum of strains. Type of assay: cell-based.
From the text: as §1, with “Most of these microorganisms are intrinsically resistant to aminoglycosides (poor permeability), but in combination with β-lactam antibiotics are often used to treat infections caused by these microorganisms.” left out
as §3

Assay [5] concerns Pseudomonas aeruginosa 66 and C43. Briefly: MIC, microdilution broth, P. aeruginosa. Type of assay: cell-based.
From the text: as §1, §2

Another assay concerns Enterococcus faecium 119. Kind of assay: MIC, microdilution broth, E. faecium. It is filed as cell-based. The following applies: E. faecium 119, moderately resistant to aminoglycosides.
From the text: as §1, with “Most of these microorganisms are intrinsically resistant to aminoglycosides (poor permeability), but in combination with β-lactam antibiotics are often used to treat infections caused by these microorganisms.” left out
as §3

The subject of another assay is F-AS. Briefly: Binding to A-site rRNA template. To be noted: specific assay conditions; compared with compound 4 for F-AS.

For “6-O-[2-N-(3-Propylamino)ethylamino]neamine [Compound 6]”, the “antibiotic activity” value in assay [1] was “demonstrates activity”; with Staphylococcus aureus 3 it was “demonstrates activity”; with Escherichia coli JM83, “demonstrates activity”; in assay [2], “demonstrates activity”; with E. coli JM83 (APH(3′)-I), “not active”; in assay [3] it was “not active”. Besides, the “overall antibiotic activity” value in [4] was “lower activity than compound 3”.

As to `NCCNCCOC1C(NC(=O)[C@@H](O)CCN)CC(N)C(O[C@H]2O[C@H](CN)[C@@H](O)[C@H](O)[C@H]2N)C1O` (stereo partly drawn) [Compound 3, 1-N-[(S)-4-Amino-2-hydroxybutanoyl]-6-O-[2-N-(2-ethylamino)ethylamino]neamine], in assay [4], the “MIC values relative to compounds 4 and 5” value was “approximately four-fold higher”.

`NCCCNCCOC1C(NC(=O)[C@@H](O)CCN)CC(N)C(O[C@H]2O[C@H](CN)[C@@H](O)[C@H](O)[C@H]2N)C1O` (stereo partly drawn) [Compound 4, 1-N-[(S)-4-Amino-2-hydroxybutanoyl]-6-O-[2-N-(3-propylamino)ethylamino]neamine]: the “antibiotic activity” value was “excellent activities” in [1]; “good activities” in the assay on Staphylococcus aureus 3; “excellent activities” in assay [2]; “good activity” in the assay with E. coli JM83 (APH(3′)-I); “good activity” in assay [3]; “excellent activities” in assay [5]. In the assay with Enterococcus faecium 119, the “antibiotic activity” value is listed as “good activities”. Further, in the assay on E. coli JM83 (APH(3′)-I), the “fold lower activity than tobramycin and amikacin” value is 8 fold.

As for `NCCCCNCCOC1C(NC(=O)[C@@H](O)CCN)CC(N)C(O[C@H]2O[C@H](CN)[C@@H](O)[C@H](O)[C@H]2N)C1O` (stereo partly drawn) [Compound 5, 1-N-[(S)-4-Amino-2-hydroxybutanoyl]-6-O-[2-N-(4-butylamino)ethylamino]neamine], the “antibiotic activity” value in [1] is listed as “excellent activities”; with Staphylococcus aureus 3, “good activities”; in assay [2], “excellent activities”; in the assay with E. coli JM83 (APH(3′)-I) it was “good activity”; in assay [3], “good activity”; in [5], “excellent activities”. For the same compound, the “antibiotic activity” value with Enterococcus faecium 119 is recorded as “good activities”. Moreover, in the assay on E. coli JM83 (APH(3′)-I), the “fold lower activity than tobramycin and amikacin” value was determined as 8 fold. The “binding to RNA” value with F-AS is listed as “comparable binding affinity”.

For `NCCCN(CCOC1C(NC(=O)[C@@H](O)CCN)CC(N)C(O[C@H]2O[C@H](CN)[C@@H](O)[C@H](O)[C@H]2N)C1O)C(=O)[C@@H](O)CCN` (stereo partly drawn) [Compound 7, 1-N,6-O-(2-N)-Bis[(S)-4-amino-2-hydroxybutanoyl]-6-O-[2-N-(3-propylamino)ethylamino]neamine], the “antibiotic activity” value (in assay [1]; in [2]; in the assay with E. coli JM83 (APH(3′)-I); in assay [3]; in assay [5]) was “moderate activity” throughout. For the same compound, the figures for the MIC (in the assay with E. coli JM83 (APH(3′)-I) (E. coli strain producing APH(3′)-I); in [3] (E. coli strain producing AAC(6′)/APH(2″))) were 64 µg/mL and 32 µg/mL, respectively.

Regarding `NCCCCNCCOC1C(NC(=O)Cc2ccc(N)cc2)CC(N)C(O[C@H]2O[C@H](CN)[C@@H](O)[C@H](O)[C@H]2N)C1O` (stereo partly shown) [Compound 8, 1-N-[4-Aminophenylethanoyl]-6-O-[2-N-(4-butylamino)ethylamino]neamine], in the assay on F-AS, the “binding to RNA” value is listed as “do bind to the RNA”.

Consider `NCCCCNCCOC1C(NC(=O)Cc2cccc(N)c2)CC(N)C(O[C@H]2O[C@H](CN)[C@@H](O)[C@H](O)[C@H]2N)C1O` (stereo partly shown) [Compound 9, 1-N-[3-Aminophenylethanoyl]-6-O-[2-N-(4-butylamino)ethylamino]neamine], for which, in the assay on F-AS, the “binding to RNA” value is on record as “do bind to the RNA”.
